PMC4955146, “Virtual screening and experimental validation of novel histone deacetylase inhibitors” (BMC Pharmacology & Toxicology, 2016)

Tested on: HDACs in HeLa nuclear extracts
Assay: HDAC inhibitory activity assay (fluorometric HDAC inhibitor drug screening kit)
Format: biochemical
Details: percentage of the positive control, inhibitor control at 20 μM
Description: The HDAC inhibitor drug screening kit (k340-100, BioVision, CA, USA) was used to measure HDAC inhibitory activities of the candidate compounds according to the manufacturer’s instructions. The candidate compounds, assay buffer, and HDAC fluorometric substrate, which comprises an acetylated lysine side chain, were added to HeLa nuclear extracts in a 96-well plate and incubated at 37 °C for 30 min. The reaction was stopped by adding lysine developer, and the mixture was incubated for another 30 min at 37 °C. An additional positive control included incubation with double-distilled water, and the inhibitor control consisted of incubation with Trichostatin A (TSA) at 20 μM. HDAC activities were quantified by a fluorescence plate reader (POLARstar OPTIMA, BMG, BRD) with excitation at 370 nm and emission at 450 nm.

## Trichostatin A [TSA]
  relative enzymatic activity: 12%
